Test results: patent US4008267A, “3,3'-Di(sulfonyloxy-group-containing)substituted benzidine derivatives” (AB Kabi, priority 1974, dated 1977)
Converted amounts (≈) assume the structure as drawn.

Experiments:
[1] = Color development of chromogen-reactive-indicator composition with glucose stock solutions (glucose oxidase/peroxidase); details: 0.2 mM chromogen in reagent composition
Experimental: Glucose was used as the control or test substance to be tested for in these tests.
______________________________________
Chromogen used 0.2 mM (i.e. millimolar),
glucose oxidase 3000 units,
Stock or test solutions were prepared containing glucose in concentrations of 25, 50, 100, 200, 300, and 400 mg. per 100 ml.
Before the final determination, this thus diluted solution is diluted further 1 part to 11 with the just described chromogen reagent solution. Thereafter the development of color is measured at 450 mm.
When this particular dilution pattern is applied to the foregoing stock or test stem solutions, finally diluted solutions with the following respective glucose contents are obtained: 2.2, 4.3, 8.6, 13.0, and 17.3 mg. per liter.

[2] = Light stability: extinction decrease after irradiation of the oxidized chromogen; type: physicochemical
Experimental: In connection with this composition portion of the invention, laboratory tests were conducted by a standard method for evaluating different chromogens.

[3] = Color stability at extinction maximum; type: physicochemical; details: 0.2 mM chromogen; 4 hours the longest period observed
[4] = Absorption wave length of the oxidized chromogen; type: physicochemical
[5] = Solubility of the chromogens in water / at pH 7, reduced and oxidized state; details: for solubility: pH 7, water
[6] = Stability of isolated product in air; type: physicochemical; details: greyish crystal powder
Experimental: d. 10 gm. of this 8,8'-bis(2-oxo-1,2,3,4,5,6-hexahydro-1-benzazocine) are refluxed for 12 hours with 200 ml. of concentrated hydrochloric acid. The solution is evaporated to a small volume, diluted with water, following which the pH is adjusted to 5 to 6 by adding concentrated sodium acetate solution.

[7] = background, cited from earlier work
[8] = background, cited from earlier work; remark: listed apart in the source
[9] = 450 nm (o-tolidine 430 nm), pH value 6.5
[10] = Solubility at pH 7, oxidized (colored), pH 7, oxidized state
[11] = Solubility at pH 7, reduced (uncolored), pH 7, reduced state

Compound | Precipitation of chromogen [1] | Extinction decrease % after irradiation 5 min. under 10 Watt tungsten lamp [2, 9] [%] | Color stability at extinction maximum, optional reading time [3] | Wave length range in nm ([4]; pH value 6.5) [nm] | Solubility in water (in words) [5] | solubility [5, 10] [µg/mL] | solubility [5, 11] [µg/mL] | Discoloration in the air [6] | Light absorption wave length in oxidized state [7] | Decline of extinction when exposed to light ([8]; oxidized, exposed to light) | Sensitivity of color to light ([8]; oxidized) | Extinction decrease % after irradiation 5 min. under 10 Watt tungsten lamp ([2]; 630 nm, pH value 4.5) | Wave length range in nm ([4]; pH value 4.5) [nm] | Absorption of temporarily appearing color ([7]; temporarily appearing color) | Sensitivity of color to pH and temperature ([8]; temporarily appearing color at about 630 nm)
Cl.Cl.Nc1ccc(-c2ccc(N)c(OCCCC(=O)O)c2)cc1OCCCC(=O)O [Example 1(d), Gamma, gamma'-(4,4'-diamino-3,3'-biphenyldioxy)dibutyric acid dihydrochloride] | no precipitation of chromogen occurred | 2 | up to 4 hours | 450 | very good | 700 | 70000 |  |  |  |  |  |  |  | 
Nc1ccc(-c2ccc(N)c(OCCCS(=O)(=O)O)c2)cc1OCCCS(=O)(=O)O [Example 3(b), Gamma,gamma'-(4,4'-diamino-3,3'-biphenyldioxy)dipropane sulfonic acid] | no precipitation of it occurs | 2 | up to 4 hours | 450 | quite good | 120 (≈ 261 µM) | 12000 (≈ 26100 µM) |  |  |  |  |  |  |  | 
Nc1ccc(-c2ccc(N)c(CCCCC(=O)O)c2)cc1CCCCC(=O)O [Example 6, Delta,delta'-(4,4'-diamino-3,3'-biphenyl)divaleric acid] |  |  |  |  |  |  |  | readily discolors in the air |  |  |  |  |  |  | 
COc1cc(-c2ccc(N)c(OC)c2)ccc1N [o-dianisidine] |  | 26 |  | 450 |  | 10 (≈ 40.9 µM) | 110 (≈ 450 µM) |  | about 450 nm | up to 25 per cent | sensitive to light |  |  |  | 
Cc1cc(-c2ccc(N)c(C)c2)ccc1N [o-tolidine] |  | 1 |  | 430 |  | 7 (≈ 33 µM) | 130 (≈ 612 µM) |  | about 450 nm |  |  | unstable | 630 | about 630 nm | very sensitive to variations in pH and temperature
